The subject of one test is H9C2 cell line. In words: Ferroptosis induction treatment, cell viability by WST-8 assay, H9C2 cell line. Format: cell-based, rat. Particulars: for cell viability level compared with ferroptosis inducer alone: with 50 nM RSL3, 2 μM elastin, 0.3 μM ML210, 0.3 μM ML162, 0.5 μM FIN56, 100 μM BSO or 5 μM FINO2, FIG. 2; for decrease in the cell viability level caused by ferroptosis inducer: with 100 μM BSO, 2 μM elastin, 50 nM RSL3 or 0.5 μM FIN56, FIG. 1. The source says: Three different cell lines (the H9C2 cell line, which is a rat cardiac myoblast cell line, the NR[…] cell line, which is a rat kidney fibroblast, and the C2C12 cell line, which is a mouse myoblast cell line) were obtained from the American Type Culture Collection (ATCC); the Panc-1 cell line, which is a human pancreatic cancer cell line, was obtained the Cell Resource Center for Biomedical Research, Institute of Development, Aging and Cancer, Tohoku University/Cell Bank; and the HT22 cell line, which is a mouse hippocampus nerve cell line, was purchased from Merck Millipore Co. All the cell lines were subcultured in a Dulbecco's Modified Eagle Medium (DMEM) culture solution containing 100-fold diluted 1% penicillin-streptomycin (26253-84; manufactured by Nacalai Tesque, Inc.) (hereinafter simply referred to as “DMEM culture solution”) to which 10% fetal bovine serum (FBS) and 4.5 g glucose/L were added (hereinafter referred to as “DMEM [high glucose] culture solution”) under conditions of 5% CO2/20% O2 and 37° C. 4000 cells of five different cell lines (the H9C2 cell line, the Panc-1 cell line, the NR[…] cell line, the C2C12 cell line, and the HT22 cell line) were seeded on a 96-well plate and cultured overnight in a DMEM culture solution containing 1.0 g glucose/L (low glucose) and 1% FBS (hereinafter referred to as “DMEM [low glucose low serum] culture solution”). After the procedure of the above-mentioned, ferroptosis was induced in cells from the above-mentioned five different cell lines in the presence of each of […] of the present invention (vitamin K1, vitamin K2 [menaquinone-4], vitamin K3, or vitamin K3 hydroquinone) (see Table 1) or a known ferroptosis inhibitor (ferrostatin 1). Specifically, cells from the H9C2 cell line were cultured in the presence of each of six different test substances (10 μM vitamin K1 [manufactured by FUJIFILM Wako Pure Chemical Corporation], 10 μM menaquinone-4 [manufactured by Sigma-Aldrich], 3 μM or 1 μM menadione [manufactured by Sigma-Aldrich], 1 μM vitamin K3 hydroquinone [manufactured by Toronto Research Chemicals], or 0.3 μM ferrostatin 1 [manufactured by Cayman]) at various concentrations and each of eight different ferroptosis inducers (100 μM BSO [manufactured by Sigma-Aldrich], 1.5 μM or 2 μM elastin [manufactured by Cayman], 50 nM RSL3 [manufactured by Selleck Chemicals], 0.3 μM ML210 [manufactured by Cayman], 0.3 μM ML162 [manufactured by Cayman], 0.5 μM FIN56 [manufactured by Cayman], 5 μM FINO2 [manufactured by Cayman], or 4 mM glutamic acid [manufactured by Sigma-Aldrich]) for 60 hours for BSO treatment, for 48 hours for elastin treatment, RSL3 treatment, and FIN56 treatment, and for 24 hours for ML210 treatment, ML162 treatment, FINO2 treatment, and glutamic acid treatment. Cell viability levels were measured by WST-8 assay using Cell Count Reagent SF. The cell viability level was calculated as a relative value of the cell survival level when the cell viability level when cultured in the absence of a test substance and a ferroptosis inducer was set to 1.
(Tetrazolium assays rely on reduction of a dye to a coloured formazan, in cell work by metabolically active cells.)

The next test relates to Panc-1 cell line. In words: Ferroptosis induction treatment, cell viability by WST-8 assay, Panc-1 cell line. Format: cell-based, human. The settings on record: with 5 μM elastin, FIG. 3A. The source says:
(§1) Three different cell lines (the H9C2 cell line, which is a rat cardiac myoblast cell line, the NR[…] cell line, which is a rat kidney fibroblast, and the C2C12 cell line, which is a mouse myoblast cell line) were obtained from the American Type Culture Collection (ATCC); the Panc-1 cell line, which is a human pancreatic cancer cell line, was obtained the Cell Resource Center for Biomedical Research, Institute of Development, Aging and Cancer, Tohoku University/Cell Bank; and the HT22 cell line, which is a mouse hippocampus nerve cell line, was purchased from Merck Millipore Co. All the cell lines were subcultured in a Dulbecco's Modified Eagle Medium (DMEM) culture solution containing 100-fold diluted 1% penicillin-streptomycin (26253-84; manufactured by Nacalai Tesque, Inc.) (hereinafter simply referred to as “DMEM culture solution”) to which 10% fetal bovine serum (FBS) and 4.5 g glucose/L were added (hereinafter referred to as “DMEM [high glucose] culture solution”) under conditions of 5% CO2/20% O2 and 37° C. 4000 cells of five different cell lines (the H9C2 cell line, the Panc-1 cell line, the NR[…] cell line, the C2C12 cell line, and the HT22 cell line) were seeded on a 96-well plate and cultured overnight in a DMEM culture solution containing 1.0 g glucose/L (low glucose) and 1% FBS (hereinafter referred to as “DMEM [low glucose low serum] culture solution”). After the procedure of the above-mentioned, ferroptosis was induced in cells from the above-mentioned five different cell lines in the presence of each of five different vitamin K group compounds of the present invention (vitamin K1, vitamin K2 [menaquinone-4], vitamin K3, or vitamin K3 hydroquinone) (see Table 1) or a known ferroptosis inhibitor (ferrostatin 1). […] Cell viability levels were measured by WST-8 assay using Cell Count Reagent SF. The cell viability level was calculated as a relative value of the cell survival level when the cell viability level when cultured in the absence of a test substance and a ferroptosis inducer was set to 1.

For a further test, the system named is NRK49F cell line. As to the kind of experiment: Ferroptosis induction treatment, cell viability by WST-8 assay, NRK49F cell line. Format: cell-based, rat. The settings on record: with 500 μM BSO, FIG. 3B.
Text: as §1

A further test concerns C2C12 cell line. In words: Ferroptosis induction treatment, cell viability by WST-8 assay, C2C12 cell line. It is filed as cell-based, mouse. The settings on record: with 500 μM BSO, FIG. 3C.
Text: as §1

The next test relates to HT22 cell line. In words: Ferroptosis induction treatment (glutamic acid), cell viability by WST-8 assay, HT22 cell line. The settings on record: with 4 mM glutamic acid, FIG. 4. Format: cell-based, mouse.
Text: as §1

A further test concerns AHI model mice. In words: In vivo analysis using acute hepatic injury (AHI) model mice (LPS and D-GalN). Particulars: oral 20 mg/kg at 12 h and 2 h before LPS and D-GalN, vs AHI/solvent treatment group. More on the design: species or system mouse. As for the experimental part:
An AHI model mouse was prepared by administering lipopolysaccharide (LPS) and D-galactosamine (D-GalN). Specifically, eight to nine week-old wild-type male mice (C57BL/6N; manufactured by CLEA) were divided into three groups (the wild type group [n=4], the AHI/solvent treatment group [n=7], and the AHI/VK2 treatment group [n=8]). At 12 hours and two hours before administration of LPS and D-GalN, 0.5% methylcellulose solution (solvent) was orally administered at a dose of 20 mg/kg (body weight) to the AHI/solvent treatment group, and a methylcellulose solution containing vitamin K2 (menaquinone-4) was orally administered at a dose of 20 mg (vitamin K2)/kg (body weight) to the AHI/VK2 treatment group. For LPS and D-GalN administration, PBS containing LPS and D-GalN was injected into the peritoneal cavity at a dose of 5 μg (LPS)/kg (body weight) and 500 mg (D-GalN)/kg (body weight) to the two AHI groups (that is, the AHI/solvent treatment group and the AHI/VK2 treatment group) (refer to “Sci Rep 7:1884, 2017”). The mice were sacrificed at six hours after injection, and blood and liver tissue were collected. The plasma GPT levels were measured for the collected blood using Fuji Dri-chem Slide GPT/ALT-P III (manufactured by Fujifilm Medical). Further, the collected liver tissue was fixed in 10% neutral buffered formalin and embedded in paraffin. The paraffin-embedded liver tissue was sliced to prepare liver tissue sections and subjected to hematoxylin and eosin (HE) staining. Further, deparaffinization treatment was performed by heating the liver tissue sections in a 0.01 M citric acid buffer solution (pH 6.0) at 120° C. for five minutes to prepare deparaffinized liver tissue sections. Immunohistological staining of the deparaffinized liver tissue sections using an anti-HEL antibody (50-fold diluted; clone 5F12; manufactured by JaICA) was performed in accordance with a usual method using a streptavidin-biotin-alkaline phosphatase kit (Histofine SAB-AP [M] kit; manufactured by Nichirei Corporation) and Vector Red Substrate kit (manufactured by Vector Laboratories). Further, dead cells were detected by the TUNEL method using Apop Tag Peroxidase In Situ Apoptosis Detection Kit (manufactured by Merck Millipore).

Test [1] relates to lipid peroxy radicals (LOO·). In words: Scavenging ability against lipid peroxy radicals, AA/LOX system using NBD-Pen fluorescence probe. The settings on record: 100 μM test substance; AA and LOX, PBS pH 7.4, 37° C.; vs absence of test substance; FIG. 6. Format: biochemical. Here is the method: The scavenging ability against lipid peroxy radicals (LOO·) was analyzed by the AA/LOX system using an NBD-Pen fluorescence probe in accordance with the method in “Nat Chem Biol 12:608-613, 2016.” Specifically, a mixture solution of 0.1% DMSO or 100 μM each of four different test substances (vitamin K1 [manufactured by FUJIFILM Wako Pure Chemical Corporation], vitamin K2 [menaquinone-4; manufactured by Sigma-Aldrich], menadione [manufactured by Sigma-Aldrich], or vitamin K3 hydroquinone [manufactured by Toronto Research Chemicals]) and PBS (pH 7.4) containing 500 μM arachidonic acid (manufactured by Sigma-Aldrich) and 1 mM dithiothreitol (DTT) was prepared and added to a 96-well plate, then 5 μM NBD-Pen fluorescence probe and 10 μg/mL LOX solution (manufactured by Sigma-Aldrich) were added, and the fluorescence level (excitation light, 470 nm; fluorescence wavelength, 530 nm) was measured using a microplate reader (Spectra Max M2e; manufactured by Molecular Devices) at 37° C. […] In the AA/LOX system using an NBD-Pen fluorescence probe, an oxidation reaction of AA by LOX produces a lipid peroxide (LOOH), a lipid peroxy radical (LOO·) is produced from the produced LOOH by Fenton reaction using an iron ion (Fe^2+) as a catalyst, and a scavenging ability against lipid peroxy radicals is detected using the level of NBD-Pen-derived fluorescence produced by a reaction of the produced lipid peroxy radical with NBD-Pen as an indicator.

`CC(C)=CCCC(C)=CCCC(C)=CCC/C(C)=C/CC1=C(C)C(=O)c2ccccc2C1=O` [vitamin K2, Menaquinone-4 (MK-4)]: the “cell viability level compared with ferroptosis inducer alone” value in the test with H9C2 cell line (10 μM test substance) was “significantly increased”. Besides, the “decrease in the cell viability level caused by ferroptosis inducer” value (shortened to “decrease”) with H9C2 cell line (10 μM test substance), with Panc-1 cell line (10 μM test substance), in the test on NRK49F cell line (10 μM test substance), in the test with C2C12 cell line (10 μM test substance) and in the test on HT22 cell line (10 μM test substance) was “significantly suppressed” throughout. Also, the “HEL detection level in liver tissue (lipid peroxide marker)” value in the test on AHI model mice (FIG. 5A) is “substantially decreased”. The “severe hemorrhage in the liver tissue (HE staining)” value with AHI model mice (FIG. 5A) is reported as “relieved”. For the same compound, the “plasma GPT level” value in the test with AHI model mice (FIG. 5B) was “significantly decreased”. The “proportion of dead cells in liver tissue (TUNEL method)” value in the test on AHI model mice (FIGS. 5A and 5C) is recorded as “significantly decreased”. Moreover, the “NBD-Pen fluorescence signal level (scavenging of lipid peroxy radicals)” value (“NBD-Pen fluorescence signal level” below) in test [1] is recorded as “decreased”.

Consider `CCOC(=O)c1ccc(NC2CCCCC2)c(N)c1` [ferrostatin 1], for which, in the test with H9C2 cell line (0.3 μM test substance), the “cell viability level compared with ferroptosis inducer alone” value was “significantly increased” and the “decrease” value is listed as “significantly suppressed”.

With `Cc1cc(O)c2ccccc2c1O` [vitamin K3 hydroquinone, Menadiol], in the test on H9C2 cell line (1 μM test substance), the “decrease” value is recorded as “significantly suppressed”. Moreover, the “NBD-Pen fluorescence signal level” value in test [1] is listed as “decreased”.

On to `CC1=C(C/C=C(\C)CCCC(C)CCCC(C)CCCC(C)C)C(=O)c2ccccc2C1=O` (centres unmarked) [vitamin K1, Phylloquinone], for which, in the test with H9C2 cell line (10 μM test substance), the “cell viability level compared with ferroptosis inducer alone” value is “significantly increased”. Also, the “decrease” value with H9C2 cell line (10 μM test substance), in the test with Panc-1 cell line (10 μM test substance), with NRK49F cell line (10 μM test substance), in the test with C2C12 cell line (10 μM test substance) and in the test with HT22 cell line (10 μM test substance) was “significantly suppressed” throughout. The “NBD-Pen fluorescence signal level” value in test [1] is recorded as “decreased”.

Regarding `CC1=CC(=O)c2ccccc2C1=O` [menadione, Menadione], the “decrease” value with H9C2 cell line (1 μM test substance), in the test on Panc-1 cell line (3 μM test substance), in the test with NRK49F cell line (3 μM test substance), with C2C12 cell line (3 μM test substance) and with HT22 cell line (3 μM test substance) was “significantly suppressed” in each case. The “cell viability level compared with ferroptosis inducer alone” value with H9C2 cell line (3 μM test substance) is on record as “significantly increased”. The “NBD-Pen fluorescence signal level” value in test [1] was “decreased”.

The record behind these values is patent US20260000629A1, “FERROPTOSIS INHIBITOR” (TOHOKU UNIVERSITY, priority 2020, published 2026).
